From patent US10130590B2, “Methods of treating cancer with atovaquone-related compounds” (DANA-FARBER CANCER INSTITUTE, INC., priority 2013, dated 2018)

What was measured:
STAT3 = assay: Western blot of STAT3 phosphorylation in reporter and cancer cell lines; assay type: cell-based, human
Experimental: Western blotting was performed as previously described (Battle T E, Arbiser J, & Frank D A (2005) The natural product honokiol induces caspase dependent apoptosis in B-cell chronic lymphocytic leukemia (B-CLL) cells. Blood 106(2):690-697). Antibodies to phospho-MAPK (9101), total MAPK (9102), phospho-Y705 STAT3 (9131), phospho-S6 (2215), total S6 (2217), phospho-4E-BP1 (9451), total 4E-BP1 (9644), total RSK (9355), phospho-S6K (9234, 85 used at 1:5000), total S6K (2708), phospho-eIF2α (9721, used at 1:1000), total eIF2α (5324), ATF4 (11815, used at 1:1000), PDGFRβ (3169), IGF1Rβ (9750), EGFR (2232), and HER2 (2242) were from Cell Signaling Technology. Phospho-RSK antibody was from R&D (AF889). Antibodies to total STAT3 (sc-482) and gp130 (sc-656, used at 1:1000) were from Santa Cruz Biotechnology. Phospho-S727 STAT3 antibody was described previously (229). REDD1 antibody was from Proteintech (10638-1-AP, used at 1:1000). Antibody recognizing full-length and cleaved ATF6 was from Abcam (ab122897, used at 1:1000). Antibodies to tubulin (T5168) and beta actin (A5316) were from Sigma. All antibodies were used at 1:10000 dilution for western blot unless otherwise noted. For immunoprecipitations, cells were lysed in 500 μl lysis buffer (0.5% NP-40, 150 mM NaCl, 50 mM Tris pH 7.5, with protease and phosphatase inhibitors freshly added at 1:100 [Pierce, PI78443]) on ice for 15 minutes, then centrifuged for 10 minutes at 14,000 RPM and 4° C. The supernatant was transferred to a new tube and incubated with 10 μl JAK2 antibody (Santa Cruz sc-278) or a mix of two TYK2 antibodies, 10 μl of each (Santa Cruz sc-5271 and Cell Signaling Technology 9312). Immunoprecipitation was performed overnight at 4° C. with rotation. The next day, 75 μl of protein A/G beads (Santa Cruz sc-2003) were washed twice in lysis buffer, then incubated with immunoprecipitates overnight as before. The next day, the beads were spun down (1 min. at 7,500 RPM and 4° C.) and washed 3 times with 650 μl lysis buffer for 10 minutes at 4° C. with rotation, then boiled in 50 μl sample buffer+10% β-mercaptoethanol. For Western blot, 20 μl were loaded per lane. For detection of phospho-tyrosine, a mixture of two pan-phospho-tyrosine antibodies (Cell Signaling Technology 9411 and 9416, 1:1000 of each) was used. Antibody to phospho-Y1007/1008 JAK2 was from Cell Signaling 86 Technology (3771, used at 1:1000). Antibody to phospho-Y570 JAK2 was from Millipore (09-241, used at 1:1000). Luminometric Assays Luciferase reporter cell lines were described previously (186). Firefly luciferase values were normalized by concurrent cell viability. Cell viability was measured as ATP-dependent luminescence by Cell Titer Glo (Promega).
The mechanism by which atovaquone inhibits STAT3 was investigated. STAT3-luc reporter cells were pre-treated with atovaquone (20 μM) for 1 hr, and then stimulated with IL-6 (10 ng/ml) for 15 minutes, 30 minutes, 1 hours, or 2 hours. Since STAT3 transcriptional activity is critically dependent on tyrosine phosphorylation, Western blotting was performed to see if atovaquone affected STAT3 phosphorylation. […] Next, atovaquone was used to treat U266 (2.5 hours), HEL (6 hours), or INA-6 cells (4 hours). […] In U266 and INA-6 cells, the source of STAT3 activation is JAK-dependent IL-6 signaling, while in HEL cells, STAT3 is activated by mutant JAK2-V617F. Given that atovaquone inhibits constitutive STAT3 activation in cancer cells, it was asked whether atovaquone inhibits expression of endogenous STAT3 target genes in this context.
Since atovaquone reduced gp130 expression at the cell surface, it was asked whether this effect was accompanied by reduced total gp130 in the cell. To address this question, a time course of atovaquone treatment was performed and total cellular gp130 was measured by Western blotting in U266 cells treated with atovaquone at 20 μM. […]

[1] = system: malignant hematological cell lines that lack STAT3 activation; assay: Cell viability of hematologic cancer cells lacking STAT3 activation; assay type: cell-based; settings: 72 hours
Experimental: Western blotting was performed as previously described (Battle T E, Arbiser J, & Frank D A (2005) The natural product honokiol induces caspase dependent apoptosis in B-cell chronic lymphocytic leukemia (B-CLL) cells. Blood 106(2):690-697). Antibodies to phospho-MAPK (9101), total MAPK (9102), phospho-Y705 STAT3 (9131), phospho-S6 (2215), total S6 (2217), phospho-4E-BP1 (9451), total 4E-BP1 (9644), total RSK (9355), phospho-S6K (9234, 85 used at 1:5000), total S6K (2708), phospho-eIF2α (9721, used at 1:1000), total eIF2α (5324), ATF4 (11815, used at 1:1000), PDGFRβ (3169), IGF1Rβ (9750), EGFR (2232), and HER2 (2242) were from Cell Signaling Technology. Phospho-RSK antibody was from R&D (AF889). Antibodies to total STAT3 (sc-482) and gp130 (sc-656, used at 1:1000) were from Santa Cruz Biotechnology. Phospho-S727 STAT3 antibody was described previously (229). REDD1 antibody was from Proteintech (10638-1-AP, used at 1:1000). Antibody recognizing full-length and cleaved ATF6 was from Abcam (ab122897, used at 1:1000). Antibodies to tubulin (T5168) and beta actin (A5316) were from Sigma. All antibodies were used at 1:10000 dilution for western blot unless otherwise noted. […] Cell viability was measured as ATP-dependent luminescence by Cell Titer Glo (Promega). […]

O=C1C(O)=C([C@H]2CC[C@H](c3ccc(Cl)cc3)CC2)C(=O)c2ccccc21 [atovaquone, trans-2-[4-(4-chlorophenyl)cyclohexyl]-3-hydroxy-1,4-naphthalenedione]
STAT3 tyrosine phosphorylation following IL-6 stimulation (STAT3; STAT3 reporter cells, 20 μM pre-treatment 1 hr, IL-6 (10 ng/ml)): reduced STAT3 tyrosine phosphorylation
constitutive STAT3 tyrosine phosphorylation (STAT3; U266 (2.5 hours), HEL (6 hours), INA-6 (4 hours)): inhibited constitutive STAT3 tyrosine phosphorylation
time after which STAT3 phosphorylation was inhibited (STAT3; U266, 20 μM, time course): 10 min
STAT3 serine phosphorylation (STAT3; U266, HEL, INA-6 cells): not affected
inhibition of STAT3 phosphorylation after cycloheximide pre-treatment (STAT3; U266, cycloheximide 2 μg/ml 1 hour, atovaquone 15 μM 2.5 hours): did not affect the inhibition of STAT3 phosphorylation
viability of malignant hematological cell lines that lack STAT3 activation [1]: reduced the viability
